Results: US10787452B2 (Vertex Pharmaceuticals Incorporated, priority 2012, dated 2020)

System: HCT116 colorectal cancer cells
Assay: Cisplatin sensitization assay (96 h cell viability MTS);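 further: compound concentration needed to lower the Cisplatin-alone IC50 by a set fold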
Assay type: cell-based
Settings: 96 h MTS, compound plus Cisplatin
How it was run: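 Full-matrix combination: compound × cisplatin, 2-fold dilutions from 10 μM top final, co-added; 96 h, 37° C, 5% CO2; MTS read-out after 1 h.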

| Compound | Cisplatin Sensitization Assay |
| --- | --- |
| CN1CCOC2(CCN(c3c(F)cncc3NC(=O)c3c(N)nn4cc(F)cnc34)CC2)C1 [I-N-272, 2-amino-6-fluoro-N-(5-fluoro-4-(4-methyl-1-oxa-4,9-diazaspiro[5.5]undecan-9-yl)pyridin-3-yl)pyrazolo[1,5-a]pyrimidine-3-carboxamide] | +++ (Compounds with a Cisplatin sensitization value of <0.02 μM are marked with “+++.”) |
| Nc1nn2cc(F)cnc2c1C(=O)Nc1cncc(F)c1N1CCC(S(=O)(=O)N2CCN3CCC2CC3)CC1 [I-N-273, N-(4-(4-(1,4-diazabicyclo[3.2.2]nonan-4-ylsulfonyl)piperidin-1-yl)-5-fluoropyridin-3-yl)-2-amino-6-fluoropyrazolo[1,5-a]pyrimidine-3-carboxamide] | +++ (Compounds with a Cisplatin sensitization value of <0.02 μM are marked with “+++.”) |
| Nc1nn2cc(F)cnc2c1C(=O)Nc1cncc(F)c1N1CCN(C(=O)C2CCOC2)CC1 (centres unmarked) [I-N-274, 2-amino-6-fluoro-N-(5-fluoro-4-(4-(tetrahydrofuran-3-carbonyl)piperazin-1-yl)pyridin-3-yl)pyrazolo[1,5-a]pyrimidine-3-carboxamide] | +++ (Compounds with a Cisplatin sensitization value of <0.02 μM are marked with “+++.”) |
| CC(=O)N1CCN(c2c(F)cncc2NC(=O)c2c(N)nn3cc(F)cnc23)CC1 [I-N-275, N-(4-(4-acetylpiperazin-1-yl)-5-fluoropyridin-3-yl)-2-amino-6-fluoropyrazolo[1,5-a]pyrimidine-3-carboxamide] | +++ (Compounds with a Cisplatin sensitization value of <0.02 μM are marked with “+++.”) |
| Nc1nn2cc(F)cnc2c1C(=O)Nc1cncc(F)c1N1CCN(C(=O)C2CC2)CC1 [I-N-276, 2-amino-N-(4-(4-(cyclopropanecarbonyl)piperazin-1-yl)-5-fluoropyridin-3-yl)-6-fluoropyrazolo[1,5-a]pyrimidine-3-carboxamide] | +++ (Compounds with a Cisplatin sensitization value of <0.02 μM are marked with “+++.”) |
| Nc1nn2cc(F)cnc2c1C(=O)Nc1cncc(F)c1N1CCN(C(=O)C2COC2)CC1 [I-N-278, 2-amino-6-fluoro-N-(5-fluoro-4-(4-(oxetane-3-carbonyl)piperazin-1-yl)pyridin-3-yl)pyrazolo[1,5-a]pyrimidine-3-carboxamide] | +++ (Compounds with a Cisplatin sensitization value of <0.02 μM are marked with “+++.”) |
| Nc1nn2cc(F)cnc2c1C(=O)Nc1cncc(F)c1N1CCN2C(=O)CCC[C@H]2C1 [I-N-279, (S)-2-amino-6-fluoro-N-(5-fluoro-4-(6-oxohexahydro-1H-pyrido[1,2-a]pyrazin-2(6H)-yl)pyridin-3-yl)pyrazolo[1,5-a]pyrimidine-3-carboxamide] | +++ (Compounds with a Cisplatin sensitization value of <0.02 μM are marked with “+++.”) |
| Nc1nn2cc(F)cnc2c1C(=O)Nc1cncc(Cl)c1N1CCCC1 [I-N-281, 2-amino-N-(5-chloro-4-(pyrrolidin-1-yl)pyridin-3-yl)-6-fluoropyrazolo[1,5-a]pyrimidine-3-carboxamide] | +++ (Compounds with a Cisplatin sensitization value of <0.02 μM are marked with “+++.”) |
| COCC1CCN(c2ccncc2NC(=O)c2c(N)nn3cc(F)cnc23)CC1 [I-N-282, 2-amino-6-fluoro-N-(4-(4-(methoxymethyl)piperidin-1-yl)pyridin-3-yl)pyrazolo[1,5-a]pyrimidine-3-carboxamide] | +++ (Compounds with a Cisplatin sensitization value of <0.02 μM are marked with “+++.”) |
| Cc1cncn1-c1ccncc1NC(=O)c1c(N)nn2cc(F)cnc12 [I-N-283, 2-amino-6-fluoro-N-(4-(5-methyl-1H-imidazol-1-yl)pyridin-3-yl)pyrazolo[1,5-a]pyrimidine-3-carboxamide] | ++ (Compounds with a Cisplatin sensitization value >0.02 μM but <0.2 μM are marked with “++.”) |
| Nc1nn2cc(F)cnc2c1C(=O)Nc1cncc(Cl)c1N1CCC(O)C1 (centres unmarked) [I-N-284, 2-amino-N-(5-chloro-4-(3-hydroxypyrrolidin-1-yl)pyridin-3-yl)-6-fluoropyrazolo[1,5-a]pyrimidine-3-carboxamide] | +++ (Compounds with a Cisplatin sensitization value of <0.02 μM are marked with “+++.”) |
| N#C[C@@H]1CCN(c2c(Cl)cncc2NC(=O)c2c(N)nn3cc(F)cnc23)C1 [I-N-285, (R)-2-amino-N-(5-chloro-4-(3-cyanopyrrolidin-1-yl)pyridin-3-yl)-6-fluoropyrazolo[1,5-a]pyrimidine-3-carboxamide] | ++ (Compounds with a Cisplatin sensitization value >0.02 μM but <0.2 μM are marked with “++.”) |
| CN1CC2CN(c3c(Cl)cncc3NC(=O)c3c(N)nn4cc(F)cnc34)CC2C1 (centres unmarked) [I-N-286, 2-amino-N-(5-chloro-4-(5-methylhexahydropyrrolo[3,4-c]pyrrol-2(1H)-yl)pyridin-3-yl)-6-fluoropyrazolo[1,5-a]pyrimidine-3-carboxamide] | ++ (Compounds with a Cisplatin sensitization value >0.02 μM but <0.2 μM are marked with “++.”) |
| CS(=O)(=O)C1CCN(c2c(Cl)cncc2NC(=O)c2c(N)nn3cc(F)cnc23)C1 (centres unmarked) [I-N-287, 2-amino-N-(5-chloro-4-(3-(methylsulfonyl)pyrrolidin-1-yl)pyridin-3-yl)-6-fluoropyrazolo[1,5-a]pyrimidine-3-carboxamide] | +++ (Compounds with a Cisplatin sensitization value of <0.02 μM are marked with “+++.”) |
| Nc1nn2cc(F)cnc2c1C(=O)Nc1cncc(F)c1N1CCC(n2ccnc2)CC1 [I-N-288, N-(4-(4-(1H-imidazol-1-yl)piperidin-1-yl)-5-fluoropyridin-3-yl)-2-amino-6-fluoropyrazolo[1,5-a]pyrimidine-3-carboxamide] | +++ (Compounds with a Cisplatin sensitization value of <0.02 μM are marked with “+++.”) |
| CN1CCN(C(=O)C2CCCN(c3c(F)cncc3NC(=O)c3c(N)nn4cc(F)cnc34)C2)CC1 (centres unmarked) [I-N-289, 2-amino-6-fluoro-N-(5-fluoro-4-(3-(4-methylpiperazine-1-carbonyl)piperidin-1-yl)pyridin-3-yl)pyrazolo[1,5-a]pyrimidine-3-carboxamide] | ++ (Compounds with a Cisplatin sensitization value >0.02 μM but <0.2 μM are marked with “++.”) |
| CN(C)C(=O)C1CCCN(c2ccncc2NC(=O)c2c(N)nn3cc(F)cnc23)C1 (centres unmarked) [I-N-290, 2-amino-N-(4-(3-(dimethylcarbamoyl)piperidin-1-yl)pyridin-3-yl)-6-fluoropyrazolo[1,5-a]pyrimidine-3-carboxamide] | ++ (Compounds with a Cisplatin sensitization value >0.02 μM but <0.2 μM are marked with “++.”) |
| CN1CC[C@H](Oc2ccncc2NC(=O)c2c(N)nn3cc(F)cnc23)C1 [I-O-1, (S)-2-amino-6-fluoro-N-(4-((1-methylpyrrolidin-3-yl)oxy)pyridin-3-yl)pyrazolo[1,5-a]pyrimidine-3-carboxamide] | +++ (Compounds with a Cisplatin sensitization value of <0.02 μM are marked with “+++.”) |
| CN(C)Cc1ccc(Oc2ccncc2NC(=O)c2c(N)nn3cc(F)cnc23)cn1 [I-O-3, 2-amino-N-(4-((6-((dimethylamino)methyl)pyridin-3-yl)oxy)pyridin-3-yl)-6-fluoropyrazolo[1,5-a]pyrimidine-3-carboxamide] | ++ (Compounds with a Cisplatin sensitization value >0.02 μM but <0.2 μM are marked with “++.”) |
| COc1ccncc1NC(=O)c1c(N)nn2cc(F)cnc12 [I-O-4, 2-amino-6-fluoro-N-(4-methoxypyridin-3-yl)pyrazolo[1,5-a]pyrimidine-3-carboxamide] | ++ (Compounds with a Cisplatin sensitization value >0.02 μM but <0.2 μM are marked with “++.”) |
| Nc1nn2cc(F)cnc2c1C(=O)Nc1cnccc1O[C@H]1CN2CCC1CC2 [I-O-5, (R)-2-amino-6-fluoro-N-(4-(quinuclidin-3-yloxy)pyridin-3-yl)pyrazolo[1,5-a]pyrimidine-3-carboxamide] | +++ (Compounds with a Cisplatin sensitization value of <0.02 μM are marked with “+++.”) |
| Nc1nn2cc(F)cnc2c1C(=O)Nc1cnccc1Oc1cccnc1 [I-O-7, 2-amino-6-fluoro-N-(4-(pyridin-3-yloxy)pyridin-3-yl)pyrazolo[1,5-a]pyrimidine-3-carboxamide] | ++ (Compounds with a Cisplatin sensitization value >0.02 μM but <0.2 μM are marked with “++.”) |
| Nc1nn2cc(F)cnc2c1C(=O)Nc1cnccc1OC1CCC(C(=O)O)CC1 (centres unmarked) [I-O-8, 4-((3-(2-amino-6-fluoropyrazolo[1,5-a]pyrimidine-3-carboxamido)pyridin-4-yl)oxy)cyclohexanecarboxylic acid] | + (Compounds with a Cisplatin sensitization value >0.2 μM but <5 μM are marked with “+.”) |
| Nc1nn2cc(F)cnc2c1C(=O)Nc1cnccc1O[C@H]1CCCN(C2COC2)C1 [I-O-9, (S)-2-amino-6-fluoro-N-(4-((1-(oxetan-3-yl)piperidin-3-yl)oxy)pyridin-3-yl)pyrazolo[1,5-a]pyrimidine-3-carboxamide] | ++ (Compounds with a Cisplatin sensitization value >0.02 μM but <0.2 μM are marked with “++.”) |
| Nc1nn2cc(F)cnc2c1C(=O)Nc1cnccc1O[C@@H]1CN2CCC1CC2 [I-O-10, (S)-2-amino-6-fluoro-N-(4-(quinuclidin-3-yloxy)pyridin-3-yl)pyrazolo[1,5-a]pyrimidine-3-carboxamide] | +++ (Compounds with a Cisplatin sensitization value of <0.02 μM are marked with “+++.”) |
| Nc1nn2cc(F)cnc2c1C(=O)Nc1cnccc1OC1CCN(C2COC2)CC1 [I-O-11, 2-amino-6-fluoro-N-(4-((1-(oxetan-3-yl)piperidin-4-yl)oxy)pyridin-3-yl)pyrazolo[1,5-a]pyrimidine-3-carboxamide] | +++ (Compounds with a Cisplatin sensitization value of <0.02 μM are marked with “+++.”) |
